# Source: patent publication US12295929B2, “Intravenous baclofen formulations and treatment methods” (Allaysis, LLC, priority 2015, dated 2025)
# Experiments:
# [1] = Randomized, open-label, 2-way crossover pharmacokinetics and bioavailability study of oral vs intravenous baclofen; assay type: in vivo, human; conditions: for Cmax: healthy human volunteers; for Cmax / AUC: plasma; for Cmax / AUC0-∞/Dose / AUC: mean ± SD; for AUC: human
# Protocol: Twelve healthy human volunteers were recruited. The volunteers were medication free for 48 hours before, during, and 24 hours after the administration of the study drug.
# The 12 volunteers participated in a randomized, open-label, 2-way crossover study to compare the pharmacokinetics and bioavailability of oral baclofen with an intravenous baclofen formulation. The oral formulation was a 10 mg baclofen tablet. A single intravenous dose of 5 mg was administered over 15 minutes, using the commercially available 2 mg/mL intrathecal baclofen formulation (Lioresal Intrathecal). Blood samples (6 mL) for the measurement of plasma concentrations of baclofen were collected in blood collection tubes containing K2 ethylenediaminetetraacetic acid at the following times: prior to dosing; at 5, 15, and 30 minutes; and at 1, 2, 4, 6, 8, 10, 12, and 24 hours after drug administration.
# Study plasma samples were prepared by adding 50 μL of a 500 μg/mL levetiracetam solution (internal standard) to 250 μL of K2 ethylenediaminetetraacetic acid (EDTA) human plasma. Baclofen and the internal standard were extracted from plasma by precipitating the protein with methanol and drying it under nitrogen at approximately 40° C. The dried residues were reconstituted in 300 μL of a mobile phase consisting of 20 mM ammonium acetate—methanol (75:25) solution. After 1 minute of vortex mixing, the reconstituted sample solution was filtered and injected onto the high-performance liquid chromatograph-mass spectrometer system. Standard curve samples over a range of 20 to 400 ng/mL baclofen and quality control samples containing 30 (low), 80 (medium), and 240 ng/mL (high) baclofen were prepared and analyzed in triplicate along with the study samples. The assay was linear over the range 20-400 ng/mL with a lower limit of quantification of 20 ng/mL.
# Baclofen concentration—time data were analyzed using a noncompartmental pharmacokinetic approach with Phoenix software (version 6.2; Pharsight Corporation, Mountain View, CA). The terminal rate constant (λz) was determined from the slope of the terminal log-linear portion of the plasma concentration—time curve, and the terminal half-life (t1/2) was calculated as ln 2/(λz). Maximum plasma concentrations (Cmax) and time to maximum concentration (Tmax) were determined by direct observation of the data. The area under the concentration-time curve to the last nonzero plasma concentration (Clast) that was above half the lower limit of quantification (10 ng/mL) was calculated by the trapezoidal rule and reported as AUClast. The area under the concentration-time curve extrapolated to infinity (AUC0-∞) was calculated as AUClast+(Clast/λz). Mean and standard deviation values for the parameters were also obtained using the descriptive statistics tool in Phoenix version 6.2. A paired t-test was used to determine if statistical differences existed in log normalized, dose-adjusted area under the curve between oral and intravenous arms.
# [2] = cited from earlier work
smiles,measurement,setting,value
"NCC(CC(=O)O)c1ccc(Cl)cc1 (racemic) [Baclofen, 4-amino-3-(4-chlorophenyl) butanoic acid]",time point of observed maximum baclofen concentration,[1]; 5 mg IV over 15 minutes,5 min
same,Cmax,[1]; 5 mg IV over 15 minutes,0.313 µg/mL
same,AUC0-∞/Dose,[1]; 5 mg IV,141 ± 33 ng·h/mL/mg
same,Cmax,[1]; 10 mg oral tablet,0.176 µg/mL
same,Tmax,"[1]; 10 mg oral tablet, median (min, max)",1 h
same,AUC0-∞/Dose,[1]; 10 mg oral,102 ± 23 ng·h/mL/mg
same,AUC,[1]; 5 mg IV,0.593 ± 0.111 µg·h/mL
same,AUC,[1]; 10 mg oral,0.878 ± 0.199 µg·h/mL
same,solubility in water,[2],slightly soluble
